Laboratory results published in paper PMC5218480 (PLoS ONE, 2017).

Test system: MV-4-11 cells
Assay: Gene expression microarray analysis (Affymetrix PrimeView) and GSEA
Format: cell-based, human
Design: RFU PODN (11730768_x_at) / Fold change /veh PODN (11730768_x_at) / RFU LINC00158 (11744669_a_at) / Fold change /veh LINC00158 (11744669_a_at) / RFU DUSP10 (11751237_a_at) / Fold change /veh DUSP10 (11751237_a_at) / RFU ID3 (11757404_x_at) / Fold change /veh ID3 (11757404_x_at) / RFU PLEKHG5 (11737974_s_at) / Fold change /veh PLEKHG5 (11737974_s_at) / RFU LRRC4B (11730491_at) / Fold change /veh LRRC4B (11730491_at) / RFU GIMAP4 (11747438_a_at) / Fold change /veh GIMAP4 (11747438_a_at) / RFU KRT8 (11758183_x_at) / Fold change /veh KRT8 (11758183_x_at) / RFU CNN1 (11734310_a_at) / Fold change /veh CNN1 (11734310_a_at) / RFU VPS37D (11726825_at) / Fold change /veh VPS37D (11726825_at) / RFU C10orf10 (11716522_x_at) / Fold change /veh C10orf10 (11716522_x_at) / RFU KIR2DL2 /// KIR2DL4 /// KIR2DL5A /// KIR2DL5B /// KIR2DS1 /// KIR2DS2 /// KIR2DS3 /// KIR2DS4 /// KIR3DL3 /// KIR3DL3 /// KIR3DS1 (11738374_at) / Fold change /veh KIR2DL2 /// KIR2DL4 /// KIR2DL5A /// KIR2DL5B /// KIR2DS1 /// KIR2DS2 /// KIR2DS3 /// KIR2DS4 /// KIR3DL3 /// KIR3DL3 /// KIR3DS1 (11738374_at) / RFU C1QL1 (11718748_at) / Fold change /veh C1QL1 (11718748_at) / RFU TMPRSS4 (11747572_a_at) / Fold change /veh TMPRSS4 (11747572_a_at) / RFU HAMP (11756126_x_at) / Fold change /veh HAMP (11756126_x_at) / RFU RNFT2 (11725882_a_at) / Fold change /veh RNFT2 (11725882_a_at) / RFU NR4A2 (11747474_a_at) / Fold change /veh NR4A2 (11747474_a_at) / RFU ABCC12 (11746883_a_at) / Fold change /veh ABCC12 (11746883_a_at) / RFU TMEM136 (11760407_x_at) / Fold change /veh TMEM136 (11760407_x_at) / RFU CLDN22 /// WWC2 (11732394_at) / Fold change /veh CLDN22 /// WWC2 (11732394_at) / RFU HLA-DPB1 (11760878_x_at) / Fold change /veh HLA-DPB1 (11760878_x_at) / RFU SPINT1 (11716480_a_at) / Fold change /veh SPINT1 (11716480_a_at) / RFU GAP43 (11754022_s_at) / Fold change /veh GAP43 (11754022_s_at) / RFU A4GNT (11735810_at) / Fold change /veh A4GNT (11735810_at) / RFU PRB3 (11715151_x_at) / Fold change /veh PRB3 (11715151_x_at) / RFU TUBB4B (11761932_at) / Fold change /veh TUBB4B (11761932_at) / RFU CAPN14 (11732068_a_at) / Fold change /veh CAPN14 (11732068_a_at) / RFU TMCC2 (11721928_a_at) / Fold change /veh TMCC2 (11721928_a_at) / RFU IRGQ (11745062_a_at) / Fold change /veh IRGQ (11745062_a_at) / RFU FAM174B (11720279_a_at) / Fold change /veh FAM174B (11720279_a_at) / RFU TMPRSS4 (11748680_a_at) / Fold change /veh TMPRSS4 (11748680_a_at) / RFU FAM212B (11763350_a_at) / Fold change /veh FAM212B (11763350_a_at) / RFU PLEKHG5 (11743358_a_at) / Fold change /veh PLEKHG5 (11743358_a_at) / RFU ZSCAN30 (11745921_a_at) / Fold change /veh ZSCAN30 (11745921_a_at) / RFU CMKLR1 (11741424_a_at) / Fold change /veh CMKLR1 (11741424_a_at) / RFU LOC101060620 /// MAPK8IP1 (11723275_at) / Fold change /veh LOC101060620 /// MAPK8IP1 (11723275_at) / RFU SPTSSB (11747773_x_at) / Fold change /veh SPTSSB (11747773_x_at) / RFU PRSS12 (11739890_at) / Fold change /veh PRSS12 (11739890_at) / RFU BIN1 (11741810_x_at) / Fold change /veh BIN1 (11741810_x_at) / RFU WNT11 (11732464_a_at) / Fold change /veh WNT11 (11732464_a_at) / RFU C10orf10 (11716521_a_at) / Fold change /veh C10orf10 (11716521_a_at) / RFU C5orf56 (11738089_at) / Fold change /veh C5orf56 (11738089_at) / RFU CYB561 (11721691_x_at) / Fold change /veh CYB561 (11721691_x_at) / RFU ANKRD19P (11752326_a_at) / Fold change /veh ANKRD19P (11752326_a_at) / RFU OR2T12 /// OR2T33 /// OR2T8 (11738714_s_at) / Fold change /veh OR2T12 /// OR2T33 /// OR2T8 (11738714_s_at) / RFU VCAN (11748164_a_at) / Fold change /veh VCAN (11748164_a_at) / RFU JSRP1 (11732532_at) / Fold change /veh JSRP1 (11732532_at) / RFU KRTAP10-11 (11738290_x_at) / Fold change /veh KRTAP10-11 (11738290_x_at) / RFU MYO3A (11730013_a_at) / Fold change /veh MYO3A (11730013_a_at) / RFU EBF3 (11725865_a_at) / Fold change /veh EBF3 (11725865_a_at) / RFU CAMK2N1 (11719241_x_at) / Fold change /veh CAMK2N1 (11719241_x_at) / RFU C5orf56 (11738088_a_at) / Fold change /veh C5orf56 (11738088_a_at) / RFU OLFML3 (11715873_a_at) / Fold change /veh OLFML3 (11715873_a_at) / RFU LOC100653217 /// NTM (11731650_a_at) / Fold change /veh LOC100653217 /// NTM (11731650_a_at) / RFU MAPK11 (11762145_a_at) / Fold change /veh MAPK11 (11762145_a_at) / RFU FIZ1 (11724087_x_at) / Fold change /veh FIZ1 (11724087_x_at) / RFU OASL (11726364_x_at) / Fold change /veh OASL (11726364_x_at) / RFU SOX15 (11748057_x_at) / Fold change /veh SOX15 (11748057_x_at) / RFU CD79A (11719716_a_at) / Fold change /veh CD79A (11719716_a_at) / RFU HIST1H1D (11736915_at) / Fold change /veh HIST1H1D (11736915_at) / RFU CASKIN2 (11723855_a_at) / Fold change /veh CASKIN2 (11723855_a_at) / RFU LOC730098 (11760151_x_at) / Fold change /veh LOC730098 (11760151_x_at) / RFU OR4N2 (11742367_at) / Fold change /veh OR4N2 (11742367_at) / RFU PRRT2 (11749266_a_at) / Fold change /veh PRRT2 (11749266_a_at) / RFU SNX32 (11753110_a_at) / Fold change /veh SNX32 (11753110_a_at) / RFU CDHR5 (11726645_a_at) / Fold change /veh CDHR5 (11726645_a_at) / RFU RCAN1 (11760418_a_at) / Fold change /veh RCAN1 (11760418_a_at) / RFU FAM167A (11723789_a_at) / Fold change /veh FAM167A (11723789_a_at) / RFU FAM26E (11764081_at) / Fold change /veh FAM26E (11764081_at) / RFU ISYNA1 (11749810_s_at) / Fold change /veh ISYNA1 (11749810_s_at) / RFU ACY1 (11761880_at) / Fold change /veh ACY1 (11761880_at) / RFU 11764098_at / Fold change /veh 11764098_at / RFU SAMD14 (11745864_x_at) / Fold change /veh SAMD14 (11745864_x_at) / RFU NPB (11741838_a_at) / Fold change /veh NPB (11741838_a_at) / RFU TMPRSS6 (11731388_a_at) / Fold change /veh TMPRSS6 (11731388_a_at) / RFU KRTAP10-2 (11738614_at) / Fold change /veh KRTAP10-2 (11738614_at) / RFU ARHGAP8 /// PRR5-ARHGAP8 (11727945_x_at) / Fold change /veh ARHGAP8 /// PRR5-ARHGAP8 (11727945_x_at) / RFU KRTAP5-7 /// NADSYN1 (11734609_at) / Fold change /veh KRTAP5-7 /// NADSYN1 (11734609_at) / RFU RASL12 (11751679_a_at) / Fold change /veh RASL12 (11751679_a_at) / RFU CDKN2B (11736163_a_at) / Fold change /veh CDKN2B (11736163_a_at) / RFU PRF1 (11729649_at) / Fold change /veh PRF1 (11729649_at) / RFU, ZNF638 /// ZNF638-IT1 / Fold change vs veh, ZNF638 /// ZNF638-IT1 / RFU, PANK3 / Fold change vs veh, PANK3 / RFU, SH3YL1 / Fold change vs veh, SH3YL1 / RFU, ZEB2 / Fold change vs veh, ZEB2 / RFU, NRIP1 / Fold change vs veh, NRIP1 / RFU, PTTG1IP / Fold change vs veh, PTTG1IP / RFU, CAPN2 / Fold change vs veh, CAPN2 / RFU, MED14 / Fold change vs veh, MED14 / RFU, SNORA58 / Fold change vs veh, SNORA58 / RFU, C1orf63 / Fold change vs veh, C1orf63 / RFU, LRRFIP1 / Fold change vs veh, LRRFIP1 / RFU, NDUFAF7 / Fold change vs veh, NDUFAF7 / RFU, SLC12A2 / Fold change vs veh, SLC12A2 / RFU, IBTK / Fold change vs veh, IBTK / RFU, ESF1 / Fold change vs veh, ESF1 / Fold change vs veh, TMEM50B / RFU, TAOK1 / Fold change vs veh, TAOK1 / RFU, ACBD3 / Fold change vs veh, ACBD3 / RFU, TMA16 / Fold change vs veh, TMA16 / RFU, RWDD3 / Fold change vs veh, RWDD3 / RFU, BCAT1 / Fold change vs veh, BCAT1 / RFU, EDEM3 / Fold change vs veh, EDEM3 / RFU, TMEM33 / Fold change vs veh, TMEM33 / RFU, WDR75 / Fold change vs veh, WDR75 / RFU, AHCTF1 / Fold change vs veh, AHCTF1 / RFU, TFRC / Fold change vs veh, TFRC / RFU, ZDHHC17 / Fold change vs veh, ZDHHC17 / RFU, NOM1 / Fold change vs veh, NOM1 / RFU, ARL8B / Fold change vs veh, ARL8B / RFU, ZBTB11 / Fold change vs veh, ZBTB11 / RFU, TAMM41 / Fold change vs veh, TAMM41 / RFU, KIAA1704 /// LOC100996395 / Fold change vs veh, KIAA1704 /// LOC100996395 / RFU, ING1 / Fold change vs veh, ING1 / RFU, TRMT61B / Fold change vs veh, TRMT61B / RFU, FUBP3 / Fold change vs veh, FUBP3 / RFU, TP53 / Fold change vs veh, TP53 / RFU, TNKS2 / Fold change vs veh, TNKS2 / RFU, ZFP14 / Fold change vs veh, ZFP14 / RFU, ACTR2 / Fold change vs veh, ACTR2 / RFU, PPP3R1 / Fold change vs veh, PPP3R1 / RFU, PIK3R1 / Fold change vs veh, PIK3R1 / RFU, HNRNPA1 / Fold change vs veh, HNRNPA1 / RFU, RNF170 / Fold change vs veh, RNF170 / RFU, ZNF28 / Fold change vs veh, ZNF28 / RFU, RNGTT / Fold change vs veh, RNGTT / RFU, OGT / Fold change vs veh, OGT / RFU, BRD1 / Fold change vs veh, BRD1 / RFU, MARS / Fold change vs veh, MARS / RFU, ZNF655 / Fold change vs veh, ZNF655 / RFU, FAHD1 / Fold change vs veh, FAHD1 / RFU, BDP1 / Fold change vs veh, BDP1 / RFU, LRRCC1 / Fold change vs veh, LRRCC1 / RFU, ARID1A / Fold change vs veh, ARID1A / RFU, ZNF146 / Fold change vs veh, ZNF146 / RFU, ZNF330 / Fold change vs veh, ZNF330 / RFU, GPN3 / Fold change vs veh, GPN3 / RFU, C9orf123 / Fold change vs veh, C9orf123 / RFU, N4BP2L2 / Fold change vs veh, N4BP2L2 / RFU, ARFIP1 / Fold change vs veh, ARFIP1 / RFU, FAM179B / Fold change vs veh, FAM179B / RFU, BCL10 / Fold change vs veh, BCL10 / RFU, UHRF1BP1L / Fold change vs veh, UHRF1BP1L / RFU, BET1 / Fold change vs veh, BET1 / RFU, CNOT2 / Fold change vs veh, CNOT2 / RFU, ZNF268 / Fold change vs veh, ZNF268 / Fold change vs veh, ZNF507 / RFU, DGCR2 / Fold change vs veh, DGCR2 / RFU, WDSUB1 / Fold change vs veh, WDSUB1 / Fold change vs veh, HSP90B1 /// MIR3652 / RFU, ADSS / Fold change vs veh, ADSS / RFU, GK / Fold change vs veh, GK / RFU, ZNF148 / Fold change vs veh, ZNF148 / RFU, TAF9 / Fold change vs veh, TAF9 / RFU, SLC1A5 / Fold change vs veh, SLC1A5 / RFU, SLMO2 / Fold change vs veh, SLMO2 / RFU, ABCC4 / Fold change vs veh, ABCC4 / RFU, LOC101060439 /// RAP1B / Fold change vs veh, LOC101060439 /// RAP1B / RFU, RFX7 / Fold change vs veh, RFX7 / RFU, GTPBP10 / Fold change vs veh, GTPBP10 / RFU, CNEP1R1 / Fold change vs veh, CNEP1R1 / RFU, BIVM-ERCC5 /// ERCC5 / Fold change vs veh, BIVM-ERCC5 /// ERCC5 / RFU, ILF3 / Fold change vs veh, ILF3 / RFU 11762660_at / Fold change /veh 11762660_at / RFU VCAN (11757783_s_at) / Fold change /veh VCAN (11757783_s_at) / RFU DDX43 (11728927_at) / Fold change /veh DDX43 (11728927_at) / RFU KRT8 (11758188_x_at) / Fold change /veh KRT8 (11758188_x_at) / RFU NKD1 (11759106_at) / Fold change /veh NKD1 (11759106_at) / RFU SRD5A1 (11742802_a_at) / Fold change /veh SRD5A1 (11742802_a_at) / RFU TPSAB1 /// TPSB2 (11721975_s_at) / Fold change /veh TPSAB1 /// TPSB2 (11721975_s_at) / RFU GSTM3 (11746129_a_at) / Fold change /veh GSTM3 (11746129_a_at) / RFU IL23R (11737362_x_at) / Fold change /veh IL23R (11737362_x_at) / RFU TMEM51 (11727254_a_at) / Fold change /veh TMEM51 (11727254_a_at) / RFU PIWIL2 (11732686_x_at) / Fold change /veh PIWIL2 (11732686_x_at) / RFU ORM1 (11744905_x_at) / Fold change /veh ORM1 (11744905_x_at) / RFU CCDC152 (11743942_at) / Fold change /veh CCDC152 (11743942_at) / RFU ECM1 (11717891_a_at) / Fold change /veh ECM1 (11717891_a_at) / RFU IL23R (11748794_a_at) / Fold change /veh IL23R (11748794_a_at) / RFU TNFAIP8L3 (11732012_x_at) / Fold change /veh TNFAIP8L3 (11732012_x_at) / RFU MBOAT4 (11741988_at) / Fold change /veh MBOAT4 (11741988_at) / RFU 11764193_at / Fold change /veh 11764193_at / RFU TMEM53 (11763286_at) / Fold change /veh TMEM53 (11763286_at) / RFU MAGEB2 (11727129_at) / Fold change /veh MAGEB2 (11727129_at) / RFU TMEM200A (11744735_a_at) / Fold change /veh TMEM200A (11744735_a_at) / RFU CCDC152 (11751479_a_at) / Fold change /veh CCDC152 (11751479_a_at) / RFU FAM211A (11726209_a_at) / Fold change /veh FAM211A (11726209_a_at) / RFU RGS16 (11746705_a_at) / Fold change /veh RGS16 (11746705_a_at) / RFU VCAN (11755009_s_at) / Fold change /veh VCAN (11755009_s_at) / RFU RHOB (11743442_s_at) / Fold change /veh RHOB (11743442_s_at) / RFU RGS16 (11720943_a_at) / Fold change /veh RGS16 (11720943_a_at) / RFU RGS16 (11720944_at) / Fold change /veh RGS16 (11720944_at) / RFU, VPS4B / Fold change vs veh, VPS4B / RFU, CREB1 / Fold change vs veh, CREB1 / RFU, DNAJC13 / Fold change vs veh, DNAJC13 / RFU, GNAQ / Fold change vs veh, GNAQ / RFU, CDK5R1 / Fold change vs veh, CDK5R1 / RFU, ZRANB3 / Fold change vs veh, ZRANB3 / RFU, CUL4A / Fold change vs veh, CUL4A / RFU, CCNY / Fold change vs veh, CCNY / RFU, UFL1 / Fold change vs veh, UFL1 / RFU, COG3 / Fold change vs veh, COG3 / RFU, DIAPH2 / Fold change vs veh, DIAPH2 / RFU, SKA2 / Fold change vs veh, SKA2 / RFU, AFF3 / Fold change vs veh, AFF3 / RFU, LMF1 / Fold change vs veh, LMF1 / RFU, IPO11 / Fold change vs veh, IPO11 / RFU, DFFB / Fold change vs veh, DFFB / RFU, FOXP1 / Fold change vs veh, FOXP1 / RFU, CARD8 / Fold change vs veh, CARD8 / RFU, STRN3 / Fold change vs veh, STRN3 / RFU, ADK / Fold change vs veh, ADK / RFU, RASSF2 / Fold change vs veh, RASSF2 / RFU, WIPF1 / Fold change vs veh, WIPF1 / RFU, LARP1B / Fold change vs veh, LARP1B / RFU, RASA1 / Fold change vs veh, RASA1 / RFU, RB1 / Fold change vs veh, RB1 / RFU, PPFIA1 / Fold change vs veh, PPFIA1 / RFU, MAT2A / Fold change vs veh, MAT2A / RFU, CCT5 / Fold change vs veh, CCT5 / RFU, WDR92 / Fold change vs veh, WDR92 / RFU, CUX1 / Fold change vs veh, CUX1 / RFU, TTC7A / Fold change vs veh, TTC7A / RFU, TMEM135 / Fold change vs veh, TMEM135 / RFU, DEPTOR / Fold change vs veh, DEPTOR / RFU, CPM / Fold change vs veh, CPM / RFU, DNAJB6 / Fold change vs veh, DNAJB6 / RFU, CACNA2D3 / Fold change vs veh, CACNA2D3 / RFU, DTX4 / Fold change vs veh, DTX4 / RFU, TFCP2 / Fold change vs veh, TFCP2 / RFU, GMCL1 /// GMCL1P1 / Fold change vs veh, GMCL1 /// GMCL1P1 / RFU, AEBP2 / Fold change vs veh, AEBP2 / RFU, SNHG1 /// SNORD22 /// SNORD25 /// SNORD26 /// SNORD27 /// SNORD28 /// SNORD29 /// SNORD31 / Fold change vs veh, SNHG1 /// SNORD22 /// SNORD25 /// SNORD26 /// SNORD27 /// SNORD28 /// SNORD29 /// SNORD31 / Fold change (Aza/veh), C12orf56 (ProbeSet 11735607_a_at) / Fold change (ACY-1035/veh), C12orf56 (ProbeSet 11735607_a_at) / Fold change (Aza/veh), FGFR1OP (ProbeSet 11751329_s_at) / Fold change (ACY-1035/veh), FGFR1OP (ProbeSet 11751329_s_at) / Fold change (Aza/veh), VPS36 (ProbeSet 11739960_a_at) / Fold change (ACY-1035/veh), VPS36 (ProbeSet 11739960_a_at) / RFU SYPL1 (11715823_x_at) / Fold change /veh SYPL1 (11715823_x_at) / RFU IGFBP7 (11715501_s_at) / Fold change /veh IGFBP7 (11715501_s_at) / RFU REEP3 (11722064_at) / Fold change /veh REEP3 (11722064_at) / RFU IGLL1 (11728026_x_at) / Fold change /veh IGLL1 (11728026_x_at): dose or concentration left out as unconfirmed
Conditions: ProbeSet 11733831_s_at; LIST D

## Nc1ncn([C@@H]2O[C@H](CO)[C@@H](O)[C@H]2O)c(=O)n1 [azacitidine]
  Fold change vs veh, GMCL1 /// GMCL1P1: 0.81
